Experimental data: patent US20240182867A1, “CHEMICAL REPROGRAMMING OF HUMAN SOMATIC CELLS INTO PLURIPOTENT CELLS” (Peking University, priority 2021, published 2024)
Where a name gives a salt, the structure may show the parent alone.

Assays:
human somatic cells [1] = experiment: Replacement of small molecules by others targeting the same pathway; assay type: cell-based; conditions: for replacement of ABT 869: receptor tyrosine kinase inhibitor; for replacement of IWP-2: Wnt inhibitor
Procedure: VPA (500 μM), Tranylcypromine (10 μM), DZNep (0.05 μM), and EPZ004777 (5 μM) were included in the first 4 days. In several experiments, to testing the reprogramming efficiency after removing each small molecules, the indicated small molecules were removed from the cocktails.

human somatic cells [2] = experiment: Reprogramming efficiency with supplemental inhibitors; assay type: cell-based; conditions: inhibitor added to induction medium
Procedure: KnockOut™ DMEM supplemented with 10% KSR, 10% FBS, 1% GlutaMAX™, 1% NEAA, 0.055 mM 2-mercaptoethanol, 1% Penicillin-Streptomycin, 50 μg/ml Vc2p, 5 mM LiCl, 1 mM NAM, 100 ng/ml bFGF (Origene) and the small molecules CHIR99021 (10-12 μM), 616452 (10 μM), TTNPB (2 μM), SAG (0.5 μM), ABT-869 (1 μM), Y-27632 (10 μM), JNKIN8 (1 μM), Tranylcypromine (2 μM), 5-Azacytidine (5 μM), UNC0224 (1 μM), Ruxolitinib (1 μM), BIRB796 (2 μM), Dorsormorphin (0.5-1 μM). To enhance the reprogramming efficiency, the CBP/p300 bromodomain inhibitor SGC-CBP30 (2 μM) and Menin-MLL interaction inhibitor VTP50469 were introduced in stage II induction medium.
In several experiments, to testing the reprogramming efficiency after regulate each small molecules, the indicated small molecules were removed from the cocktails. The concentration of the small molecules used to targeting the same pathway or targets were indicated as follow: GSK3 inhibitors (CHIR99021: 3-15 μM; TD114-2: 0.5-2 μM; CHIR98014: 1-3 μM; GSK3βi XV: 0.05-0.2 μM); TGFβ inhibitors (A8301: 0.2-5 μM; SB431542: 2-50 μM; 616452: 10 μM); RA pathway agonists (TTNPB: 0.2-10 μM; Ch55: 1-10 μM; AM580: 0.1-1 μM); Rock inhibitors (Y27632: 2-15 μM; Fasudil: 2-10 μM; HA1100: 2-10 μM; TZV: 2-10 μM); Smoothened agonists (SAG: 0.2-2 μM; Purmorphamine: 0.5-2 μM; Hg-Ag1.5: 0.5-1 μM; Human shh: 20-200 μM); histone demethylation inhibitors (Tranylcypromine: 2-50 μM; GSK2879: 0.02-2 μM; LSD-C76: 0.2-5 μM; S2101: 0.5-5 μM; LSD-2D: 0.2-5 μM; RN-1: 0.2-5 μM); DNMT inhibitors (5-azaC: 2-15 μM; Decitabine: 0.5-10 μM; RG108: 0.5-10 μM); JNK inhibitors (JNK-in-8: 0.2-2 μM; JNK-in-5: 0.5-1 μM; JNK-in-7: 0.2-2 μM; JNK-in-12: 0.2-0.5 μM); CBP/p300 bromodomain inhibitor (SGC-CBP30: 0.5-2 μM; I-CBP112: 0.5-5 μM; GNE272: 0.5-5μM; GNE409:0.5-5μM); Menin-MLL interaction inhibitor (VTP50469: 0.5-2μM; MI3454: 0.5-2μM; WDR5-IN-4: 0.5-2μM). […]

human fibroblasts = experiment: Conversion of human fibroblasts into monolayer epithelial-like cells; assay type: cell-based; conditions: added into the combination CHIR99021, 616452 and TTNPB
Procedure: KnockOut™ DMEM (Gibco, 10829018) supplemented with 10% Knockout Serum Replacement (KSR) (Gibco, 10828028), 10% FBS, 1% GlutaMAX™, 1% NEAA, 1% Penicillin-Streptomycin, 0.055 mM 2-mercaptoethanol, 50 μg/ml L-Ascorbic acid 2-phosphate (Vc2P) (Sigma, A8960), 5 mM LiCl (Sigma, L4408), 1 mM Nicotinamide (NAM) (Sigma, 72340), 2 mg/mL AlbuMAX™-II (Gibco, 11021045) and the small molecules CHIR999021 (10 μM), 616452 (10 μM), TTNPB (2 μM), SAG (0.5 μM), ABT-869 (1 μM), Rock inhibitor (Y-27632 (2 μM) or Tzv (2 μM))
(§1) Cells were maintained at 37° C. with 21% 02 and 5% CO2. The induction medium was changed every 3-4 days. HEFs were seeded at a density of 1-1.5×10^4 cells per well of a 12-well plate in 15%. FBS-DMEM medium. Change the medium into stage I induction medium on the next day. For stage I induction, single layer epithelial-like cells would emerge at day 4-6 and approach 80%-100% confluence at day 8-12, then change the medium into stage II induction medium. For stage II induction, multi-layered colonies appeared after 8-12 days treatment and these cell colonies would continually grow larger. After totally 16-20 days' stage II treatment, change the medium into stage III condition. For stage III induction, 8-12 days treatment of stage III medium is required and then change the medium into stage IV condition. For stage IV induction, VPA (500 μM) was included in the first 4 days. Primary hCiPSC colonies would emerge after 6-8 days' treatment. At the end of stage IV, immunofluorescent staining of co-expression of OCT4 and NANOG was used to confirm the generation of primary hCiPSC colonies. Primary hCiPSC colony number was calculated as the number of the compact OCT4 positive colonies. Reprogramming efficiency was calculated as the number of primary hCiPSC colonies divided by the number of input HEFs.

LIN28A = experiment: Withdrawing individual chemicals from stage I: LIN28A expression; assay type: cell-based, human; conditions: compound removed from stage I condition
Procedure: (§2) In several experiments, to testing the reprogramming efficiency after removing each small molecules, the indicated small molecules were removed from the cocktails. The concentration of the small molecules used to regulate the same pathway or targets were indicated as follow: GSK3 inhibitors (CHIR99021: 3-15 μM; TD114-2: 0.5-2 μM; CHIR98014: 1-3 μM; GSK3βi XV: 0.05-0.2 μM); RA pathway agonists (TTNPB: 0.5-10 μM; […] AM580: 0.1-1 μM); Rock inhibitors (TZV: 2-10 μM; Y27632: 2-15 μM; Fasudil: 2-10 μM; HA1100: 2-10 μM); TGFβ inhibitors ([…]: 0.1-5 μM; SB431542: 2-50 μM; LY364947: 0.5 μM; LY21: 0.5 μM; 616452: 10 μM). […] The data were analyzed using the delta-delta Ct method. GAPDH was used as a control to normalize the expression of target genes.

[3] = tested on: fibroblast marker genes (somatic program); experiment: Withdrawing individual chemicals from stage I: fibroblast marker genes; assay type: cell-based, human; conditions: compound removed from stage I condition
Procedure: as §2

human somatic cells [4] = experiment: hCiPSC colonies at the end of reprogramming after withdrawing individual chemicals from stage I or II; assay type: cell-based; conditions: factor removed
Procedure: as §1
In several experiments, to testing the reprogramming efficiency after removing each small molecules, the indicated small molecules were removed from the cocktails. The concentration of the small molecules used to regulate the same pathway or targets were indicated as follow: GSK3 inhibitors (CHIR99021: 3-15 μM; TD114-2: 0.5-2 μM; CHIR98014: 1-3 μM; GSK3βi XV: 0.05-0.2 μM); RA pathway agonists (TTNPB: 0.5-10 μM; Ch55: 1-5 μM; AM580: 0.1-1 μM); Rock inhibitors (TZV: 2-10 μM; Y27632: 2-15 μM; Fasudil: 2-10 μM; HA1100: 2-10 μM); TGFβ inhibitors (A8301: 0.1-5 μM; SB431542: 2-50 μM; LY364947: 0.5 μM; LY21: 0.5 μM; 616452: 10 μM).
In several experiments, to testing the reprogramming efficiency after regulate each small molecules, the indicated small molecules were removed from the cocktails. The concentration of the small molecules used to targeting the same pathway or targets were indicated as follow: GSK3 inhibitors (CHIR99021: 3-15 μM; TD114-2: 0.5-2 μM; CHIR98014: 1-3 μM; GSK3βi XV: 0.05-0.2 μM); TGFβ inhibitors (A8301: 0.2-5 μM; SB431542: 2-50 μM; 616452: 10 μM); RA pathway agonists (TTNPB: 0.2-10 μM; Ch55: 1-10 μM; AM580: 0.1-1 μM); Rock inhibitors (Y27632: 2-15 μM; Fasudil: 2-10 μM; HA1100: 2-10 μM; TZV: 2-10 μM); Smoothened agonists (SAG: 0.2-2 μM; Purmorphamine: 0.5-2 μM; Hg-Ag1.5: 0.5-1 μM; Human shh: 20-200 μM); histone demethylation inhibitors (Tranylcypromine: 2-50 μM; GSK2879: 0.02-2 μM; LSD-C76: 0.2-5 μM; S2101: 0.5-5 μM; LSD-2D: 0.2-5 μM; RN-1: 0.2-5 μM); DNMT inhibitors (5-azaC: 2-15 μM; Decitabine: 0.5-10 μM; RG108: 0.5-10 μM); JNK inhibitors (JNK-in-8: 0.2-2 μM; JNK-in-5: 0.5-1 μM; JNK-in-7: 0.2-2 μM; JNK-in-12: 0.2-0.5 μM); CBP/p300 bromodomain inhibitor (SGC-CBP30: 0.5-2 μM; I-CBP112: 0.5-5 μM; GNE272: 0.5-5μM; GNE409:0.5-5μM); Menin-MLL interaction inhibitor (VTP50469: 0.5-2μM; MI3454: 0.5-2μM; WDR5-IN-4: 0.5-2μM).

Clc1ccc(Nc2nnc(Cc3ccncc3)c3ccccc23)cc1 [Valatanib]
replacement of ABT 869 (human somatic cells [1]): able to replace ABT 869

COc1cc2ncc(-c3ccccc3)nc2cc1OC [AG1296, 6,7-Dimethoxy-3-phenylquinoxaline]
replacement of ABT 869 (human somatic cells [1]): able to replace ABT 869

COc1ccc(CCc2nc3cc(-c4c(C)noc4C)ccc3n2C[C@H](C)N2CCOCC2)cc1Cl [SGC-CBP30, 2-[2-(3-chloro-4-methoxyphenyl)ethyl]-5-(3,5-dimethyl-4-isoxazolyl)-1-[(2S)-2-(4-morpholinyl)propyl]-1H-benzimidazole]
reprogramming efficiency (human somatic cells [2]): can improve

CC(=O)N1CCc2c(c(Nc3ccc(-c4cnn(C)c4)cc3F)nn2[C@H]2CCOC2)C1 [GNE272]
reprogramming efficiency (human somatic cells [2]): can improve

CNC1CCC(N(Cc2cccc(-c3ccncc3)c2)C(=O)c2sc3ccccc3c2Cl)CC1 (centres unmarked) [SAG]
generation of the epithelial-like cells (human fibroblasts): can facilitate

C[C@@H](N)[C@H]1CC[C@H](C(=O)Nc2ccncc2)CC1 [Y27632, (+)-(R)-trans-4-(1-aminoethyl)-N-(4-pyridyl)cyclohexanecarboxamide+++dihydrochloride]
generation of the epithelial-like cells (human fibroblasts): can facilitate

O=C(Nc1cccc2cccnc12)c1ccc(N2C(=O)[C@@H]3[C@H](C2=O)[C@@H]2C=C[C@H]3C2)cc1 [IWR-1]
replacement of IWP-2 (human somatic cells [1]): able to replace IWP-2

C/C(=C\c1ccc(C(=O)O)cc1)c1ccc2c(c1)C(C)(C)CCC2(C)C [TTNPB, 4-[(E)-2-(5,6,7,8-Tetrahydro-5,5,8,8-tetramethyl-2-naphthalenyl)-1-propenyl]benzoic acid]
LIN28A activation (LIN28A): severely reduced
downregulation of the somatic program [3]: inhibited
generation of hCiPSCs (human somatic cells [4]): greatly impaired

O=c1[nH]c(-c2ccc(C(F)(F)F)cc2)nc2c1CSCC2 [XAV-939, 3,5,7,8-Tetrahydro-2-[4-(trifluoromethyl)phenyl]-4H-thiopyrano[4,3-d]pyrimidin-4-one]
replacement of IWP-2 (human somatic cells [1]): able to replace IWP-2

Cc1cnc(-c2cnc(NCCNc3ccc(C#N)cn3)nc2-c2ccc(Cl)cc2Cl)[nH]1 [CHIR99021, 6-[[2-[[4-(2,4-Dichlorophenyl)-5-(5-methyl-1H-imidazol-2-yl)-2-pyrimidinyl]amino]ethyl]amino]-3-pyridinecarbonitrile]
LIN28A activation (LIN28A): severely reduced
downregulation of the somatic program [3]: inhibited
generation of hCiPSCs (human somatic cells [4]): greatly impaired

Cc1cc(-c2ccc(CC(=O)Nc3ccc(-c4cccnc4)cc3)cc2)ccn1 [WNT-C59, 4-(2-Methyl-4-pyridinyl)-N-[4-(3-pyridinyl)phenyl]benzeneacetamide]
replacement of IWP-2 (human somatic cells [1]): able to replace IWP-2

CCC(=O)N1CCOc2c(cc(-c3ccc(OC)c(OC)c3)cc2OC[C@H]2CCCN(C)C2)C1 [I-CBP112]
reprogramming efficiency (human somatic cells [2]): can improve

Cc1cccc(-c2n[nH]cc2-c2ccc3ncccc3n2)n1 [compound 616452, 2-(3-(6-Methylpyridin-2-yl)-1H-pyrazol-4-yl)-1,5-naphthyridine]
LIN28A activation (LIN28A): severely reduced
downregulation of the somatic program [3]: inhibited
generation of hCiPSCs (human somatic cells [4]): greatly impaired

Cc1ccc(F)c(NC(=O)Nc2ccc(-c3cccc4[nH]nc(N)c34)cc2)c1 [ABT869, N-[4-(3-amino-1H-indazol-4-yl)phenyl]-N′-(2-fluoro-5-methylphenyl)-urea]
generation of the epithelial-like cells (human fibroblasts): can facilitate
